In patent publication US10954231B2, “Anxiolytic compounds” (Bionomics Limited, priority 2006, dated 2021):

Columns and labels:
Type in all cases: in vivo
[1] = test system: mice; test: Open field (dark), spontaneous motor activity; set-up: key to OF: sedation: NS: no sedation; S: sedation; settings: oral, 60 min before test; for OF: sedation: 20 min recording; for OF: maximum non-sedating dose: for examples marked * 20 mg/kg is the only dose tested
Source text: The open field (dark) is used to measure the spontaneous motor activity of mice in a quiet, dark environment. This system is useful for discriminating the sedating or stimulating properties of test compounds on spontaneous locomotion and can thus provide a preliminary indication of potentially adverse effects such as sedation.
The apparatus is an open plexiglass cage (52×52 cm) with 40 cm walls. The animal's movements are tracked by a computerised video tracking system, consisting of an overhead camera, diode sensors placed underneath the floor of the cage, computer and video analyser software (ViewPoint, France). The video camera is placed at 2.50 m above the cage and connected to the computer via a video capture card (Pinnacle Systems, France). The video tracking system is set in a way that the floor of the OF is divided into nine equal squares. The total number of crossed squares and the total walked distance are recorded.
Each animal is singly placed in a corner of the apparatus and its locomotor activity is automatically recorded over a period of 20 minutes.
The apparatus is cleaned between each animal with alcohol (70%).
The below items were tested in the Open Field as indicated by an entry in the OF column. NS=no sedation; S=sedation. The maximum non-sedating dose in mg/kg is shown.
Test compound was prepared in 5% PEG400−0.9% NaCl. It was administered orally, 60 minutes before the implementation of the test.

[2] = test system: mice; test: Light dark test; settings: oral, 60 min before test; for minimal effective dose at 20 mg/kg: Mus musculus, 1 h, for examples marked * 20 mg/kg is the only dose tested, read-out: LD: minimum effective dose; for LD: significant anxiolytic effect (number of significant parameters): parameters: time spent in lit area, transitions into lit area, total walked distance in lit area
Source text: The light dark paradigm is based on a conflict between the innate aversion of rodents to brightly illuminated areas and on the spontaneous exploratory behaviour of the mice. If given a choice between a large brightly compartment versus a small dark compartment they spontaneously prefer the dark part.
The apparatus consists of two PVC (polyvinylchloride) boxes (19×19×15 cm) covered with Plexiglas. One of these boxes is darkened. The other box is illuminated by 100 W desk lamp placed 15 cm above and providing an illumination of about 4400 Lux. An opaque plastic tunnel (5×7×10 cm) separates the dark box from the illuminated one.
Animals were placed individually in the lit box, with head directed towards the tunnel. The time spent in the lit box and the number of transitions between the two boxes was recorded over a 5 min period after the first entry of the animal in the dark box. The total walked distance in the lit box was also recorded. Animals scored without entry into the […] were excluded from the analysis.
The compounds in Table 1 were tested in the light-dark test (indicated in the LD column). +=a significant anxiolytic effect in one of the three parameters measured in the LD model, ++ represents a significant effect in 2 parameters and +++ is significance in all three. The parameters are: time spent in the lit area, number of transitions into the lit area, or total walked distance in the lit area.
The test compound was prepared in 5% PEG400-0.9% NaCl.
(§1) It was administrated orally, 60 minutes before the implementation of the test.

[3] = test system: mice; test: Marble burying test; settings: oral, 60 min before test, 20 min session
Source text: The Marble Burying test is used as a model for both anxiety and obsessive compulsive disorders. Mice have a natural tendency to bury marbles under the bedding when placed in a cage with rows of evenly spaced marbles on the floor. Suppression of this spontaneous burying has been used as a measure of anxiolytic drug action. Mice pre-treated with benzodiazepines and different classes of antidepressants bury less marbles when compared to the control mice
The apparatus consists of transparent polycarbonate cages (30 cm×18 cm×19 cm) containing a 5 cm layer of fine sawdust bedding and 20 glass marbles (diameter: 1.5 cm) spaced evenly along the walls of the cage. Each animal is placed individually in the cage where it remains for a 20 min test session. On termination of the test session the animals are removed from the cage and the number of marbles at least two-thirds buried in the sawdust is recorded.
Example 1 was tested in the Marble Burying model. The minimum effective dose in mg/kg is indicated in the MB column in Table 1.
The test compound was prepared in 5% PEG400−0.9% NaCl.
as §1

[4] = test system: rat; test: Elevated plus maze; set-up: key to EPM rat: significant anxiolytic effect (number of significant parameters): +: a significant anxiolytic effect in one of the three parameters measured in the LD model; ++: represents a significant effect in 2 parameters; +++: is significance in all three; settings: oral, 60 min before test

| SMILES | OF: sedation [1] | OF: maximum non-sedating dose [1] | minimal effective dose at 20 mg/kg [2] | LD: significant anxiolytic effect (number of significant parameters) [2] | MB: minimum effective dose [3] | EPM rat: minimum effective dose [4] | EPM rat: significant anxiolytic effect (number of significant parameters) ([4]; parameters: time spent in open arms, transitions into open arms, total walked distance in open arms) |
| --- | --- | --- | --- | --- | --- | --- | --- |
| CCn1cc(C(=O)Nc2ccc(F)cc2)c(=O)c2cc(NC3Cc4ccccc4C3)cnc21 [Example 8] | NS | 20 mg/kg | 20 mg/kg | ++ | – | – | – |
| CCn1cc(C(=O)N2CCOCC2)c(=O)c2cc(NC3Cc4ccccc4C3)ncc21 [Example 3, morpholino 6-(2,3-dihydro-1H-inden-2-ylamino)-1-ethyl-1,4-dihydro-4-oxo-1,7-naphthyridine-3-carboxamide] | – | – | – | ++ | – | – | – |
| CCOC(=O)c1cn(CC)c2ncc(NC(=O)C(C)C)cc2c1=O [Example 10, Ethyl 6-(isobutyrylamide)-1-ethyl-1,4-dihydro-4-oxo-1,8-naphthyridine-3-carboxylate] | NS | 20 mg/kg | 20 mg/kg | +++ | – | – | – |
| CCOC(=O)c1cn(CC)c2ncc(NC(=O)c3cc(OC)c(OC)c(OC)c3)cc2c1=O [Example 7, Ethyl 6-(3,4,5-trimethoxybenzoylamide)-1-ethyl-1,4-dihydro-4-oxo-1,8-naphthyridine-3-carboxylate] | S | 20 mg/kg | 20 mg/kg | ++ | – | – | – |
| CCn1cc(C(=O)N2CCOCC2)c(=O)c2nc(NC3Cc4ccccc4C3)ccc21 [Example 2, Morpholino 6-(2,3-dihydro-1H-inden-2-ylamino)-1-ethyl-1,4-dihydro-4-oxo-1,5-naphthyridine-3-carboxamide] | S | 5 mg/kg | 30 mg/kg | +++ | – | – | – |
| CCn1cc(C(=O)NC2CC2)c(=O)c2cc(NC3Cc4ccccc4C3)cnc21 [Example 5, Cyclopropylamino 6-(2,3-dihydro-1H-inden-2-ylamino)-1-ethyl-1,4-dihydro-4-oxo-1,8-naphthyridine-3-carboxamide] | – | – | 20 mg/kg | + | – | – | – |
| CCn1cc(C(=O)N2CCOCC2)c(=O)c2cc(NC3Cc4ccccc4C3)cnc21 [Example 1, Morpholino 6-(2,3-dihydro-1H-inden-2-yl)amino-1-ethyl-1,4-dihydro-4-oxo-1,8-naphthyridine-3-carboxamide] | NS | 100 mg/kg | – | ++ | 1 mg/kg | 0.1 mg/kg | +++ |
| CCn1cc(C(=O)Nc2ccc(-c3ccccc3)cc2)c(=O)c2cc(NC3Cc4ccccc4C3)cnc21 [Example 9, 4-biphenylamino-6-(2,3-dihydro-1H-inden-2-ylamino)-1-ethyl-1,4-dihydro-4-oxo-1,8-naphthyridine-3-carboxamide] | NS | 20 mg/kg | 20 mg/kg | +++ | – | – | – |
| CCN(CC)C(=O)c1cn(CC)c2ncc(NC3Cc4ccccc4C3)cc2c1=O [Example 6] | NS | 20 mg/kg | 20 mg/kg | ++ | – | – | – |
| CCn1cc(C(=O)N2CCN(C)CC2)c(=O)c2cc(NC3Cc4ccccc4C3)cnc21 [Example 4, Methylpiperazino 6-(2,3-dihydro-1H-inden-2-ylamino)-1-ethyl-1,4-dihydro-4-oxo-1,8-naphthyridine-3-carboxamide] | – | – | 20 mg/kg | ++ | – | – | – |
